Laboratory results as given in patent US5399586A, “Treatment of mammals afflicted with tumors with compounds having RXR retinoid receptor agonist activity” (Allergan, Inc., priority 1993, dated 1995).
Where two headings read alike, the source gives them in different places.

How the values were obtained:
[1] = tested on: RAR and RXR receptor sites; experiment: RAR versus RXR agonist specificity (in words); assay type: cell-based; details: result in words
Method: The data obtained in the assay are evaluated and expressed as follows. For each test compound and for each subspecies of the RAR receptors a graph (or the mathematical equivalent of a graph) is prepared where the "counts per minute" (cpm) obtained in the scintillation counter measurements are plotted (on the y axis) against the concentration of the test compound. A similar graph (or mathematical equivalent) is prepared for retinoic acid. […] This is illustrated in the graphs of FIG. 1 and FIG. 3.
This reference compound is a known agonist of the RXRα receptor site.

[2] = tested on: HL-60 cdm-1 cells; experiment: Assay 3: morphology of HL-60 cdm-1 cells at 4 hours, 48 hours, 6 days; assay type: cell-based, human; details: 3 μl of 1 mM stock in 3 ml
Method: HL-60 cdm-1 cells were plated in a 6-well tissue culture plate (Falcon) in 3 ml of media (RPMI-1640 containing bovine insulin 5 mg/L, human transferrin 5 mg/L and Na Selenite 5 μg/L) at a density of 1×10^5 cells/ml. Duplicate wells received either ethanol (3 μl) or 3 μl of a stock solution of AGN 191701 (Compound 1, 1 mM in ethanol). The cells were cultured in a humidified incubator (5% CO2) at 37° C. in the dark for either 4 hours, 48 hours or 6 days. At the indicated times an aliquot of the cells (50 μl) was sedimented onto a microscope slide using a cytospin centrifuge. Sedimented cells were air dried, fixed in absolute methanol, stained with a Diffquick reagent kit, mounted in permount and visualized by brightfield light microscopy.

[3] = tested on: HL-60 cdm-1 cells; experiment: Assay 1: HL-60 cdm-1 cell count and microscopy after 72 hours; assay type: cell-based, human; details: 1 uM; for cell counts: control 5.1 × 10^+5 / ml; for inspection of microscope slides: versus control
From the text: Sedimented cells were air dried, fixed in absolute methanol, stained with a Diff-quick reagent kit, mounted in Permount and visualized by brightfield light microscopy.

[4] = tested on: HL-60 cdm-1 cells; experiment: Assay 2: DNA fragmentation (laddering) in HL-60 cdm-1 cells; assay type: cell-based, human; details: 1 μM, 48 hours; 1% agarose gel
Method: HL-60 cdm-1 cells were placed in a T-25 tissue culture flask in 8 ml of media (RPMI-1640 containing bovine insulin 5 mg/L, human transferin 5 mg/L and Na Selenite 5 μg/L) at a density of 2×10^5 cells/ml. AGN 191701 (Compound 1) was added to a final concentration of 1 μM (8 μl of a 1 mM stock solution) and the cells were cultured in a humidified incubator (5% CO2) at 37° C. in the dark for 48 hours. The media and cells were removed from the flask, the cells were pelleted (1100 rpm/7 min Beckman desk top centrifuge), the pellet was washed once with phosphate buffered saline (PBS) and then the pelleted cells were lysed by the addition of 200 μl of a solution containing 20 mM Tris-HCl pH 7.4, 0.4 mM EDTA, 0.4% Triton X-100. The lysate was centrifuged for 5 minutes in a microfuge (14,000 rpm) and the supernatant adjusted to a final concentration of 0.5M NaCl and 50% isopropanol. The solution was allowed to precipitate overnight at -20° C. and the precipitate that formed was pelleted in a microfuge (10 min, 14,000 rpm). The pellet was washed once in 70% ethanol, it was resuspended in 50 μl Tris EDTA (10 mM Tris HCl ph 7.4, 0.4 mM EDTA) and mixed with gel loading buffer. […] DNA was detected by ethidium bromide staining followed by visualization and photography under a UV lamp.

[5] = tested on: chimeric RARβ receptor protein; experiment: Cationic Liposome Mediated Transfection Assay, RARβ; assay type: cell-based; details: Table 1; 50% of maximum CAT activity of all-trans retinoic acid; HeLa cells
Method: (§1) The above-mentioned Cationic Liposome Mediated Transfection Assay assay by which the activity of a test compound as a potential agonist of the RXR and RAR receptor sites is determined, is performed substantially as reported by Feigner P. L. and Holm M. (1989) Focus, 11-2, and is described below first in principle and thereafter in the form of specific instructions how to perform the assay.
(§2) In connection with this assay it is known that retinoic acid receptors arena member of the steroid/thyroid receptor super family and that they contain domains which are interchangeable within individual receptors. Thus, plasmids for chimeric retinoid receptors containing estrogen DNA binding domain and estrogen response element chloramphenicol acetyl-transferase enzyme are constructed and are grown in specific cultured bacteria. These plasmids respectively code for chimeric RARα, RARβ, RARγ, RXRα receptor proteins, and for the chloramphenicol acetyl A transferase (CAT) enzyme protein. The bacteria with these plasmids are obtainable in accordance with the procedure set forth in the article titled "Nuclear Retinoic Acid Receptors: Cloning, Analysis, and Function", M. Pfahl et al , Methods in Enzymology 189, p 256-270 (1990) which is incorporated herein by reference. The detailed procedure how to isolate the DNA plasmids from the respective bacteria is also set forth below in detail, in the form of specific instructions under the title "Supercoiled Plasmid Isolation".
(§3) Thus, in accordance with the test procedure, DNA plasmid which codes for one of the chimeric RARα, RARβ, RARγ, or RXRα receptor proteins is transfected into cultures of HeLa cells. […] As is known and will be readily understood by those skilled in the art, especially in view of the above-cited M. Pfahl et al. article, chimeric retinoid receptors involved in this assay include a ligand binding domain which recognizes and binds specific agonist molecules, such as retinoic acid and analogs. […]

[6] = tested on: chimeric RARγ receptor protein; experiment: Cationic Liposome Mediated Transfection Assay, RARγ; assay type: cell-based; details: Table 1; 50% of maximum CAT activity of all-trans retinoic acid; HeLa cells
Method: as §1, §2, §3

[7] = tested on: chimeric RXRα receptor protein; experiment: Cationic Liposome Mediated Transfection Assay, RXRα; assay type: cell-based
Method: as §1, §2
Thus, in accordance with the test procedure, DNA plasmid which codes for one of the chimeric RARα, RARβ, RARγ, or RXRα receptor proteins is transfected into cultures of HeLa cells. It is for this purpose that HeLa cells are grown in a medium during the first day of the assay detailed below as the "Cationic Liposome Mediated Transfection Assay". In the transfection procedure, which is performed during the second day of the transfection assay, the DNA plasmid coding for the CAT enzyme is also added to each cell culture, in addition to the respective chimeric RARα, or RARβ etc. coding plasmid. As is known and will be readily understood by those skilled in the art, especially in view of the above-cited M. Pfahl et al. article, chimeric retinoid receptors involved in this assay include a ligand binding domain which recognizes and binds specific agonist molecules, such as retinoic acid and analogs. These chimeric protein receptors (which were constructed in accordance with the teachings of the M. Pfahl. et al, article) also contain a a DNA binding domain, which is capable of binding to the "estrogen response element" (a DNA fragment) attached to the DNA plasmid coding for the CAT enzyme. […]

[8] = tested on: chimeric RARα receptor protein; experiment: Cationic Liposome Mediated Transfection Assay, RARα; assay type: cell-based; details: Table 1; 50% of maximum CAT activity of all-trans retinoic acid; HeLa cells
Method: as §1
In connection with this assay it is known that retinoic acid receptors arena member of the steroid/thyroid receptor super family and that they contain domains which are interchangeable within individual receptors. Thus, plasmids for chimeric retinoid receptors containing estrogen DNA binding domain and estrogen response element chloramphenicol acetyl-transferase enzyme are constructed and are grown in specific cultured bacteria. […]
as §3

[9] = tested on: human myeloid leukemia (HL-60 cdm1-1) cells; experiment: Induction of apoptotic cell death in HL-60 cdm-1 cells (general statement); assay type: cell-based; details: compared with ethanol control
Method: In the assay, the human myeloid leukemia (HL-60 cdm1-1) cells are grown in cultures, and an RXR agonist compound, such as Compound 1 (AGN 191701) or Compound 3 (AGN 191659), is added to the culture.

[10] = Table 1; 50% of maximum CAT activity of AGN 191440; HeLa cells; read-out: EC50 RXRα

Row | RAR / RXR agonist specificity [1] | EC50 [5] [nM] | EC50 [6] [nM] | EC50 [7, 10] [nM] | EC50 [8] [nM] | Structure (SMILES) | cell morphology at 4 hours ([2]; 4 hours) | cell morphology at 48 hours ([2]; 48 hours) | cell morphology after 6 days ([2]; 6 days) | cell counts [3] [mL⁻¹] | inspection of microscope slides [3] | DNA fragmentation (laddering) [4] | activity at RXR receptor sites [1] | apoptotic cell death [9] | EC50 ([7]; read-out: EC50 RXRα; Table 1; 50% of maximum CAT activity of AGN 191440; HeLa cells) [nM]
1 | RXR specific agonist | 3350 | 1070 | 67 | – | C/C(=C\c1cc(C(=O)O)cs1)c1cc2c(cc1C)C(C)(C)CCC2(C)C [Compound 1, 2-[(E)-2-(5,6,7,8-tetrahydro-3,5,5,8,8-pentamethylnaphthalen-2-yl)propen-1-yl]thiophene-4-carboxylic acid] | nuclear pyknosis and nuclear as well as cytoplasmic hyperchromicity with the formation of cytoplasmic extensions (large blobs) | extensive cell death with numerous hyperchromatic nuclear fragments either free in the media or contained with shrunken cell remnants | the same hyperchromatic nuclear remnants are detected but in addition there are scattered multinucleated syncitial cells | 70000 | extensive cell death, almost all cells died | pattern of DNA fragmentation | – | – | –
2 | – | 101 | 364 | 448 | 3160 | C/C(=C\c1ccc(C(=O)O)cc1)c1cc2c(cc1C)C(C)(C)CCC2(C)C [Compound 2, reference compound] | – | – | – | – | – | – | – | – | –
3 | pan-agonist | 23 | 153 | 11.2 | > 1000 | C/C(=C\c1ccc(C(=O)O)s1)c1cc2c(cc1C)C(C)(C)CCC2(C)C [Compound 3, 2-[(E)-2-(5,6,7,8-tetrahydro-3,5,5,8-pentamethylnaphthalen-2-yl)propen-1-yl]-5-thiophenecarboxylic acid] | – | – | – | – | – | – | – | – | –

Row | Structure (SMILES) | RAR / RXR agonist specificity [1] | EC50 [5] [nM] | EC50 [6] [nM] | EC50 [7, 10] [nM] | EC50 [8] [nM] | cell morphology at 4 hours ([2]; 4 hours) | cell morphology at 48 hours ([2]; 48 hours) | cell morphology after 6 days ([2]; 6 days) | cell counts [3] [mL⁻¹] | inspection of microscope slides [3] | DNA fragmentation (laddering) [4] | activity at RXR receptor sites [1] | apoptotic cell death [9] | EC50 ([7]; read-out: EC50 RXRα; Table 1; 50% of maximum CAT activity of AGN 191440; HeLa cells) [nM]
4 | C/C(=C\c1ccc(C(=O)O)cc1)c1ccc2c(c1)C(C)(C)CCC2(C)C [Compound 4, reference compound] | specific RAR agonist | – | – | – | – | – | – | – | 460000 | no difference between the control | – | not active at RXR receptor sites | not active and not | > 10000
